Patent US20170022159A1, “HETEROCYCLIC AMPHOTERIC COMPOUNDS” (Eastman Chemical Company, priority 2014, published 2017)
Like-named read-outs stand apart in the source and are kept apart here.

Experiments:
[1] = for Percent amphoteric remaining: buffer
Experimental: The resulting mixture was placed in a 50° C. oven. Samples were taken periodically and analyzed for the amount of (4-lauroyloxy-1-methylpiperidinium-1-yl)acetate remaining by quantitative HPLC.

[2] = Foaming Properties of Surface-Active Agents (ASTM 1173-07), foam height; format: physicochemical
Excerpt: The Standard Test Method for Foaming Properties of Surface-Active Agents (ASTM 1173-07) was used to determine the foaming properties of the heterocyclic amphoteric compounds of the formula 1 described herein. This method generates foam under low-agitation conditions and is generally used for moderate- and high-foam surfactants. This test gathers data on initial foam height and foam decay. Foam decay provides information on foam stability.
The apparatus for carrying out this test includes a jacketed column and a pipet. The jacketed column serves as a receiver, while the pipet delivers the surface-active solution. Solutions of each surface-active agent were prepared. The solution of the heterocyclic amphoteric compound to be tested was added to the receiver (50 mL) and to the pipet (200 mL). The pipet was positioned above the receiver and opened. As the solution fell and made contact with the solution in the receiver, foam was generated. When the pipet was empty, the time was noted and an initial foam height was recorded. The foam height was recorded each minute for five minutes. Exact size specifications for the glassware can be found in ASTM 1173-07. The foam height results for each heterocyclic amphoteric compound 1 and representative standards are listed below in Tables 1 (0.1% concentration) and 2 (1% concentration).

[3] = Fluorimetric determination of critical micelle concentration (DPH dye); format: physicochemical
Experimental: The critical micelle concentration (CMC) was also determined for each compound. The CMC is the concentration of surfactant above which micelles spontaneously form. CMC is an important characteristic of a surfactant. At surfactant concentrations below the CMC, surface tension varies widely with surfactant concentration. At concentrations above the CMC, surface tension remains fairly constant. A lower CMC indicates less surfactant is needed to saturate interfaces and form micelles. Typical CMC values are less than 1 weight percent (10,000 ppm).
The fluorimetric determination of CMC described by Chattopadhyay and London (Analytical Biochemistry, Vol. 139, pp. 408-412 (1984)) was used to obtain the critical micelle concentrations found in Table 3 below. This method employs the fluorescent dye 1,6-diphenyl-1,3,5-hexatriene (DPH) in a solution of the surface-active agent. The analysis is based on differences in fluorescence upon incorporation of the dye into the interior of the micelles. As the solution exceeds CMC, a large increase in fluorescence intensity is observed.

[4] = 1 g/L (0.1 weight %), t = 0 min
[5] = 1 g/L (0.1 weight %), t = 1 min
[6] = 1 g/L (0.1 weight %), t = 2 min
[7] = 1 g/L (0.1 weight %), t = 3 min
[8] = 1 g/L (0.1 weight %), t = 4 min
[9] = 1 g/L (0.1 weight %), t = 5 min
[10] = 10 g/L (1.0 weight %), t = 0 min
[11] = 10 g/L (1.0 weight %), t = 1 min
[12] = 10 g/L (1.0 weight %), t = 2 min
[13] = 10 g/L (1.0 weight %), t = 3 min
[14] = 10 g/L (1.0 weight %), t = 4 min
[15] = 10 g/L (1.0 weight %), t = 5 min

Row | Compound | Foam height (cm) at time t (min) [2, 4] | Foam height (cm) at time t (min) [2, 5] | Foam height (cm) at time t (min) [2, 6] | Foam height (cm) at time t (min) [2, 7] | Foam height (cm) at time t (min) [2, 8] | Foam height (cm) at time t (min) [2, 9] | Foam height (cm) at time t (min) [2, 10] | Foam height (cm) at time t (min) [2, 11] | Foam height (cm) at time t (min) [2, 12] | Foam height (cm) at time t (min) [2, 13] | Foam height (cm) at time t (min) [2, 14] | Foam height (cm) at time t (min) [2, 15] | CMC [3] | CMC (ppm) [3] | other results
1 | 3-(cocoyloxypropyldimethylammonio)acetate [Comparative Example 2, reference compound] |  |  |  |  |  |  |  |  |  |  |  |  |  |  | Percent amphoteric remaining ([1]; 0 h, pH 5): 100%; Percent amphoteric remaining ([1]; 336 h, pH 5): 74%; Percent amphoteric remaining ([1]; 1344 h, pH 5): 73%; Loss of compound (in words) ([1]; milder conditions (pH 5, 45° C.)): significant loss
2 | CCCCCCCCCCCC(=O)OC1CC[N+](C)(CC(=O)[O-])CC1 (centres unmarked) [Example 9, (4-lauroyloxy-1-methylpiperidinium-1-yl)acetate] | 17.0 cm | 17.0 cm | 16.5 cm | 16.5 cm | 16.0 cm | 16.0 cm | 16.5 cm | 16.0 cm | 16.0 cm | 15.5 cm | 15.5 cm | 15.5 cm |  |  | Percent amphoteric remaining ([1]; 0 h, pH 4.5): 100%; Percent amphoteric remaining ([1]; 336 h, pH 4.5): 98%; Percent amphoteric remaining ([1]; 1008 h, pH 4.5): 96%; Percent amphoteric remaining ([1]; 1344 h, pH 4.5): 85%; Loss of compound (in words) ([1]; extended incubation in pH 4.5 water at 50° C.): limited loss
3 | CCCCCCCCCCCC(=O)OCC1CCC[N+](C)(CC(=O)[O-])C1 (centres unmarked) [Example 11, (3-lauroyloxymethyl-1-methylpiperidinium-1-yl)acetate] | 18.5 cm | 17.5 cm | 17.5 cm | 17.0 cm | 16.5 cm | 16.0 cm | 19.0 cm | 18.0 cm | 18.0 cm | 17.5 cm | 17.5 cm | 17.5 cm | 0.248 mM | 95.0 ppm | 
4 | CCCCCCCCCCCCOS(=O)(=O)O.N [ammonium lauryl sulfate, reference compound] |  |  |  |  |  |  |  |  |  |  |  |  | 1.38 mM | 392 ppm | 
5 | CCCCCCCCCCCCOS(=O)(=O)[O-].[Na+] [sodium lauryl sulfate, reference compound] |  |  |  |  |  |  |  |  |  |  |  |  | 8.27 mM | 2386 ppm | 
6 | (3-cocoyloxymethyl-1-methylpiperidinium-1-yl)acetate [Example 5] | 16.5 cm | 16.0 cm | 15.5 cm | 15.5 cm | 15.0 cm | 15.0 cm | 18.0 cm | 17.5 cm | 17.0 cm | 17.0 cm | 17.0 cm | 16.5 cm | 0.062 mM | 23.7 ppm | 
7 | (4-cocoyloxy-1-methylpiperidinium-1-yl)acetate [Example 3] | 16.5 cm | 16.0 cm | 15.5 cm | 15.5 cm | 15.5 cm | 15.5 cm | 18.5 cm | 18.0 cm | 17.5 cm | 17.0 cm | 17.0 cm | 17.0 cm | 0.062 mM | 22.9 ppm | 
8 | (4-cocoyloxymethyl-1-methylpiperidinium-1yl)acetate [Example 7] | 16.0 cm | 14.5 cm | 12.5 cm | 9.0 cm | 6.0 cm | 4.0 cm | 18.0 cm | 17.0 cm | 17.0 cm | 17.0 cm | 16.5 cm | 16.5 cm | 0.050 mM | 19.2 ppm | 
9 | (4-lauramido-1-methylpiperidinium-1-yl)acetate [Example 17] |  |  |  |  |  |  |  |  |  |  |  |  | 1.54 mM | 566.5 ppm | 
10 | cocamidopropyl betaine [reference compound] | 17.0 cm | 16.0 cm | 16.0 cm | 16.0 cm |  | 15.5 cm | 17.5 cm | 16.5 cm |  | 16.0 cm | 16.0 cm | 16.0 cm | 0.069 mM | 24.5 ppm | 
